# Reference: patent US10556900B2, “TrkA kinase inhibitors, compositions and methods thereof” (Merck Sharp & Dohme Corp., priority 2015, dated 2020)
# Target: human TrkA receptor (Homo sapiens (Human), UniProt P04629)
# Experiment: TrkA functional activity, DiscoverX PathHunter assay (NGF-stimulated U2OS cells)
# Format: cell-based
# Settings: U2OS cells expressing human TrkA-Prolink, Shc1-EA and p75NTR; compound 1 h, then NGF (~80% of maximal response) 3 h; luminescence
# Protocol: TrkA functional activity was measured using a DiscoverX PathHunter assay. In this assay, U2OS cells express the human TrkA receptor as a fusion with the weakly complementing fragment of B-galactosidase, which DiscoverX calls “Prolink (PK)”; additionally, Shc1 is fused with a larger fragment, which is called “Enzyme Acceptor (EA)”. Activation of the TrkA receptor, upon NGF addition, results in the kinase domain being phosphorylated, resulting in subsequent recruitment of Shc1-EA protein. That recruitment results in an active B-galactosidase enzyme that is detected by addition of a chemiluminescent substrate. The human p75^NTR protein was also expressed as a co-receptor for NGF.
# All reagents were purchased from DiscoverX, except for the receptor agonists (NGF, BDNF, NT3) which were purchased from Peprotech. Cells were expanded and frozen into cryovials, and stored in the vapor phase of liquid nitrogen, and thawed immediately before use. Thawed cells were added to a 384-well plate at 7500 cells/well, and allowed to incubate overnight. Compound at various concentrations was added the following morning and allowed to incubate on cells for 1 h. Then, NGF was added at a concentration sufficient to elicit ˜80% of a maximal response and allowed to incubate for 3 h at ambient temperature. DiscoverX PathHunter detection reagent was then added and the plate was further incubated for 1 h in the dark. The plate was then read via luminescence on the Perkin Elmer Envision.
# Sequence of human TrkA receptor (P04629 33-796): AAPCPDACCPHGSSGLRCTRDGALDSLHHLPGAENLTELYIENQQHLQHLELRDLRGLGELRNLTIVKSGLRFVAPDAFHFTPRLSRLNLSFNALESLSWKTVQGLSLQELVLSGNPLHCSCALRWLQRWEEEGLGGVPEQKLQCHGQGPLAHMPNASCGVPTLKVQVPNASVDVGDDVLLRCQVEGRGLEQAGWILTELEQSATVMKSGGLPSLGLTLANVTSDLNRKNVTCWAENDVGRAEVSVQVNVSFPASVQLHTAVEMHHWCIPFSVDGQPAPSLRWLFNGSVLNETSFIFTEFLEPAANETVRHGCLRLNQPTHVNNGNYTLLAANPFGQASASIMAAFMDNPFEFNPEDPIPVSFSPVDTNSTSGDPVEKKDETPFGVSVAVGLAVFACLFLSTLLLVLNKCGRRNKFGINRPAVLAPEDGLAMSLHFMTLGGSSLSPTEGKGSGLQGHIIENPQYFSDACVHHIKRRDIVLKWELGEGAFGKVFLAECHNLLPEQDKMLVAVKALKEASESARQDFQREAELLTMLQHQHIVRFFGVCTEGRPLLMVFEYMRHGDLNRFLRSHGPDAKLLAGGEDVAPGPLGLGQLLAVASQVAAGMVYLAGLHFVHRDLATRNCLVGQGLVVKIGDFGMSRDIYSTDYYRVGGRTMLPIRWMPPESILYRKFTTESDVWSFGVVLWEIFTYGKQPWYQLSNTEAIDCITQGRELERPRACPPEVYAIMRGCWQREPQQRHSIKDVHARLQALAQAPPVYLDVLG
row,IC50,SMILES
1,96 nM,"CC(C)(O)c1cc2cc(-c3ccccc3)c(NC(=O)c3cc(-c4ncccn4)c(C(F)(F)F)cc3F)cc2[nH]1 [Compound 44, 2-Fluoro-N-(2-(2-hydroxypropan-2-yl)-5-phenyl-1H-indol-6-yl)-5-(pyrimidin-2-yl)-4-(trifluoromethyl)benzamide]"
2,4.3 nM,"CC(C)(O)c1n[nH]c2c(NC(=O)c3cc(-c4ncccn4)c(C(F)(F)F)cc3F)c(-c3ccccc3)ccc12 [Compound 45, 2-Fluoro-N-(3-(2-hydroxypropan-2-yl)-6-phenyl-1H-indazol-7-yl)-5-(pyrimidin-2-yl)-4-(trifluoromethyl)benzamide]"
3,28 nM,"NC(=O)Cc1cnc2c(NC(=O)c3cc(-c4ncccn4)c(C(F)(F)F)cc3F)c(-c3ccccc3)ccn12 [Compound 50, N-(3-(2-Amino-2-oxoethyl)-7-phenylimidazo[1,2-a]pyridin-8-yl)-2-fluoro-5-(pyrimidin-2-yl)-4-(trifluoromethyl)benzamide]"
4,60 nM,"O=C(Nc1c(-c2ccc(F)cc2)ccn2c(CO)cnc12)c1cc(-c2ncccn2)c(C(F)(F)F)cc1F [Compound 51, 2-Fluoro-N-(7-(4-fluorophenyl)-3-(hydroxymethyl)imidazo[1,2-a]pyridin-8-yl)-5-(pyrimidin-2-yl)-4-(trifluoromethyl)benzamide]"
5,58 nM,"CC(C)(O)c1cnc2c(NC(=O)c3cc(-c4ncccn4)c(C(F)(F)F)cc3F)c(-c3ccc(F)cc3)ccn12 [Compound 54, 2-fluoro-N-[7-(4-fluorophenyl)-3-(1-hydroxy-1-methylethyl)imidazo[1,2-a]pyridin-8-yl]-5-pyrimidin-2-yl-4-(trifluoromethyl)benzamide]"
6,82 nM,"Cc1ccccc1-c1ccn2c(C(C)(C)O)cnc2c1NC(=O)c1cc(-c2ncccn2)c(C(F)(F)F)cc1F [Compound 55, 2-Fluoro-N-(3-(2-hydroxypropan-2-yl)-7-(o-tolyl)imidazo[1,2-a]pyridin-8-yl)-5-(pyrimidin-2-yl)-4-(trifluoromethyl)benzamide]"
7,29 nM,"Cc1ccccc1-c1ccn2c(C(N)=O)cnc2c1NC(=O)c1cc(-c2ccn(C)n2)c(C(F)(F)F)cc1F [Compound 56, 8-(2-Fluoro-5-(1-methyl-1H-pyrazol-3-yl)-4-(trifluoromethyl)benzamido)-7-(o-tolyl)imidazo[1,2-a]pyridine-3-carboxamide]"
8,201 nM,"CC(C)(O)c1cnc2c(NC(=O)c3cc(-c4ncccn4)c(C(F)(F)F)cc3F)c(-c3cccc(CO)c3)ccn12 [Compound 57, 2-Fluoro-N-(7-(3-(hydroxymethyl)phenyl)-3-(2-hydroxypropan-2-yl)imidazo[1,2-a]pyridin-8-yl)-5-(pyrimidin-2-yl)-4-(trifluoromethyl)benzamide]"
9,232 nM,"O=C(Nc1c(-c2cccc(CO)c2)ccn2ccnc12)c1cc(-c2ncccn2)c(C(F)(F)F)cc1F [Compound 58, 2-Fluoro-N-(7-(3-(hydroxymethyl)phenyl)imidazo[1,2-a]pyridin-8-yl)-5-(pyrimidin-2-yl)-4-(trifluoromethyl)benzamide]"
10,25 nM,CC(C)(O)c1ncn2c(NC(=O)c3cc(-c4ncccn4)c(C(F)(F)F)cc3F)c(-c3ccccc3)ccc12 [Compound 59]
11,4 nM,"Cn1ccc(-c2cc(C(=O)Nc3cn4c(CO)ncc4nc3-c3ccccc3)c(F)cc2C(F)(F)F)n1 [Compound 61, 2-Fluoro-N-(6-(hydroxymethyl)-2-phenylimidazo[1,5-a]pyrimidin-3-yl)-5-(1-methyl-1H-pyrazol-3-yl)-4-(trifluoromethyl)benzamide]"
12,47 nM,"Cc1ncc2nc(-c3ccccc3)c(NC(=O)c3ccc(C(F)(F)F)c(-c4ccn(C)n4)c3)cn12 [Compound 62, 3-(1-Methyl-1H-pyrazol-3-yl)-N-(6-methyl-2-phenylimidazo[1,5-a]pyrimidin-3-yl)-4-(trifluoromethyl)benzamide]"
13,32 nM,"Cn1ccc(-c2cc(C(=O)Nc3cn4c(C(=O)O)ncc4nc3-c3ccccc3)c(F)cc2C(F)(F)F)n1 [Compound 63, 3-(2-Fluoro-5-(1-methyl-1H-pyrazol-3-yl)-4-(trifluoromethyl)benzamido)-2-phenylimidazo[1,5-a]pyrimidine-6-carboxylic acid]"
14,5.5 nM,"Cn1ccc(-c2cc(C(=O)Nc3cn4cncc4nc3-c3ccccc3)c(F)cc2C(F)(F)F)n1 [Compound 64, 2-Fluoro-5-(1-methyl-1H-pyrazol-3-yl)-N-(2-phenylimidazo[1,5-a]pyrimidin-3-yl)-4-(trifluoromethyl)benzamide]"
15,4.4 nM,"Cn1ccc(-c2cc(C(=O)Nc3cn4c(CO)ncc4cc3-c3ccccc3)c(F)cc2C(F)(F)F)n1 [Compound 65, 2-Fluoro-N-(3-(hydroxymethyl)-7-phenylimidazo[1,5-a]pyridin-6-yl)-5-(1-methyl-1H-pyrazol-3-yl)-4-(trifluoromethyl)benzamide]"
16,204 nM,"CCOC(=O)c1cnc2c(NC(=O)c3cc(-c4ccn(C)n4)c(C(F)(F)F)s3)c(-c3ccccc3)ccn12 [Compound 66, Ethyl 8-(4-(1-methyl-1H-pyrazol-3-yl)-5-(trifluoromethyl)thiophene-2-carboxamido)-7-phenylimidazo[1,2-a]pyridine-3-carboxylate]"
17,56 nM,"Cn1ccc(-c2cc(C(=O)Nc3c(-c4ccccc4)ccn4c(C(N)=O)cnc34)sc2C(F)(F)F)n1 [Compound 67, 8-(4-(1-Methyl-1H-pyrazol-3-yl)-5-(trifluoromethyl)thiophene-2-carboxamido)-7-phenylimidazo[1,2-a]pyridine-3-carboxamide]"
18,48 nM,"Cn1ccc(-c2cc(C(=O)Nc3c(-c4ccccc4)ccn4c(CO)cnc34)sc2C(F)(F)F)n1 [Compound 68, N-(3-(Hydroxymethyl)-7-phenylimidazo[1,2-a]pyridin-8-yl)-4-(1-methyl-1H-pyrazol-3-yl)-5-(trifluoromethyl)thiophene-2-carboxamide]"
19,6.5 nM,"O=C(Nc1c(-c2ccccc2)ncn2c(CO)cnc12)c1cc(-c2ncccn2)c(C(F)(F)F)cc1F [Compound 69, 2-Fluoro-N-(3-(hydroxymethyl)-7-phenylimidazo[1,2-c]pyrimidin-8-yl)-5-(pyrimidin-2-yl)-4-(trifluoromethyl)benzamide]"
20,1.2 nM,"Cn1ccc(-c2cc(C(=O)Nc3c(-c4ccccc4)ncn4c(CO)cnc34)c(F)cc2C(F)(F)F)n1 [Compound 70, 2-Fluoro-N-(3-(hydroxymethyl)-7-phenylimidazo[1,2-c]pyrimidin-8-yl)-5-(1-methyl-1H-pyrazol-3-yl)-4-(trifluoromethyl)benzamide]"
21,4.8 nM,"CC(C)(O)c1cnc2c(NC(=O)c3cc(-c4ncccn4)c(C(F)(F)F)cc3F)c(-c3ccccc3)ncn12 [Compound 73, 2-Fluoro-N-(3-(2-hydroxypropan-2-yl)-7-phenylimidazo[1,2-c]pyrimidin-8-yl)-5-(pyrimidin-2-yl)-4-(trifluoromethyl)benzamide]"
